Results: ChEMBL document CHEMBL5726682, “Autotaxin inhibitor compounds” (2017)

Target: Autotaxin (Homo sapiens, UniProt Q13822)
Test: Inhibition Assay: ATX activity is assayed in concentrated conditioned media from Hep3B human hepatocellular carcinoma cells by measuring the amount of choline released from the substrate, lysophosphatidylcholine (LPC) as it is cleaved to LPA. Conditioned media is collected from confluent Hep3B cells and concentrated 20-fold using Centriprep-30 filter devices (Millipore). To assay for autotaxin inhibition, 10-20 μL of the concentrated conditioned media is incubated with 2.5 μL of a test compound in DMSO and 72.5-82.5 μL lyso-PLD buffer (100 mM Tris pH 9, 500 mM NaCl, 5 mM MgCl2, 5 mM CaCl2, 0.05% Triton X-100 in the presence or absence of 0.2% fatty-acid-free human serum albumin) for 15 min at 37° C. After the 15 min incubation, 5 uL of 2 mM LPC (14:0; Avanti Polar Lipids Cat#855575C) diluted in lyso-PLD buffer is added for a final concentration of 100 uM and the incubation continues for 1.5-3 hours at 37° C. 100 μL of a color mix containing 4.5 mM 4-aminoantipyrine, 2.7 mM N-ethyl-N-(2-hydroxy-3-sulfopropyl)-m-toluidine, 21 units/ml horseradish peroxidase and 3 units/mL choline oxidase in 50 mM Tris, pH 8, 4.5 mM MgCl2 is added and the incubation continued for 15 minutes at room temperature before reading the absorbance at 555 nm.

`O=C(O)c1cccc(Sc2c(Cl)n(CC(=O)N3CC4(CC4)c4ccccc43)c3c(F)c(Cl)ccc23)c1F` and `O=C(O)c1cccc(Sc2c(C3CC3)n(CC(=O)N3CC4(CC4)c4ccccc43)c3c(F)c(Cl)ccc23)c1F` cannot be ordered by IC50: less than 500 nM for the first, less than 500 nM for the second.

`O=C(O)c1cccc(Sc2c(C3CC3)n(CC(=O)N3CC4(CCC4)c4ccccc43)c3c(F)c(Cl)ccc23)c1F` and `O=C(O)c1cccc(Sc2c(C3CC3)n(CCN3CC4(CCC4)c4ccccc43)c3c(F)c(Cl)ccc23)c1F` cannot be ordered by IC50: less than 500 nM for the first, less than 500 nM for the second.

`Cc1c(Sc2cccc(C(=O)O)c2)c2ccc(Cl)c(F)c2n1CC(=O)N1CCc2ccc(C(F)(F)F)cc21` and `Cc1c(Sc2cccc(C(=O)O)c2)c2ccc(Cl)c(F)c2n1CC(=O)N1CCc2c(F)cccc21` cannot be ordered by IC50: less than 500 nM for the first, less than 500 nM for the second.

`Cc1c(Sc2cccc(C(=O)O)c2)c2ccc(Cl)c(F)c2n1CC(=O)N1CCC2(COC2)C1` and `Cc1c(Sc2cccc(C(=O)O)c2)c2ccc(Cl)c(F)c2n1CC(=O)N1CC2(CCN(C)CC2)C1` cannot be ordered by IC50: less than 500 nM for the first, less than 500 nM for the second.

`O=C(O)c1cccc(Sc2c(C3CC3)n(CC(=O)N3CCC(O)(C(F)(F)F)C3)c3c(F)c(Cl)ccc23)c1F` (centres undefined) and `O=C(O)c1cccc(Sc2c(Cl)n(CC(=O)N3CCC(O)(C(F)(F)F)C3)c3c(F)c(Cl)ccc23)c1F` (centres undefined) cannot be ordered by IC50: less than 500 nM for the first, less than 500 nM for the second.

Compared with `Cc1c(Sc2cccc(C(=O)O)c2)c2ccc(Cl)cc2n1C(=O)NCc1ccccc1`, `Cc1c(Sc2cccc(C(=O)O)c2)c2ccc(Cl)c(F)c2n1CCC(=O)Nc1ccccc1` is lower in IC50: greater than 3000 nM for the first, less than 500 nM for the second.

`Cc1c(Sc2cccc(C(=O)O)n2)c2ccc(Cl)c(F)c2n1CC(=O)N1CCC2(CC1)CNC(=O)O2` and `Cc1c(Sc2cccc(C(=O)O)n2)c2ccc(Cl)c(F)c2n1CC(=O)N1CCC(O)(C(F)(F)F)C1` (centres undefined) cannot be ordered by IC50: less than 500 nM for the first, less than 500 nM for the second.

`Cc1c(Sc2cccc(C(=O)O)c2)c2ccc(Cl)c(F)c2n1CC(=O)N1CCC(C#N)C1` (centres undefined) and `Cc1c(Sc2cccc(C(=O)O)c2)c2ccc(Cl)c(F)c2n1CC(=O)N1CCC(c2cnn(C)c2)CC1` cannot be ordered by IC50: less than 500 nM for the first, less than 500 nM for the second.

`Cc1c(Sc2cccc(C(=O)O)c2)c2ccc(Cl)c(F)c2n1CC(=O)N1CCCCC1CCn1cccn1` (centres undefined) and `Cc1c(Sc2cccc(C(=O)O)c2)c2ccc(Cl)c(F)c2n1CC(=O)N1CC2(CCN(C)CC2)c2ccccc21` cannot be ordered by IC50: less than 500 nM for the first, less than 500 nM for the second.

For `Cc1c(Sc2cccc(C(=O)O)c2F)c2ccc(Cl)c(F)c2n1CC(=O)N1CCC(C(C)(C)O)C1` (centres undefined), the IC50 was less than 500 nM.
